# Laboratory results published in the NIST ThermoML archive (doi:10.1016/j.fluid.2013.08.029).
# ± gives the expanded uncertainty stated by the source.
# Experiment: xn = mol fraction of the nth substance listed
# Conditions: 101 kPa, Liquid; for speed of sound: Sing-around technique in a fixed-path interferometer; for mass density: Vibrating tube method
smiles,measurement,setting,value
CCCCCn1cc[n+](C)c1.[Br-] [1-pentyl-3-methylimidazolium bromide] + OCCO,speed of sound,"288.15 K, x1 = 0.0528",1671.7 ± 2.2 m/s
same,speed of sound,"288.15 K, x1 = 0.1031",1664.4 ± 2.2 m/s
same,speed of sound,"288.15 K, x1 = 0.2102",1650.6 ± 2.3 m/s
same,speed of sound,"288.15 K, x1 = 0.3163",1645.3 ± 2.4 m/s
same,speed of sound,"288.15 K, x1 = 0.4186",1641.4 ± 2.4 m/s
same,speed of sound,"288.15 K, x1 = 0.512",1637.7 ± 2.5 m/s
same,speed of sound,"288.15 K, x1 = 0.6129",1636.5 ± 2.6 m/s
same,speed of sound,"288.15 K, x1 = 0.6967",1638.7 ± 2.6 m/s
same,speed of sound,"288.15 K, x1 = 0.8031",1645 ± 2.8 m/s
same,speed of sound,"288.15 K, x1 = 0.9021",1657.9 ± 2.9 m/s
same,mass density,"288.15 K, x1 = 0.0528",1135.7 ± 0.19 kg/m3
same,mass density,"288.15 K, x1 = 0.1031",1149.85 ± 0.21 kg/m3
same,mass density,"288.15 K, x1 = 0.2102",1173.93 ± 0.28 kg/m3
same,mass density,"288.15 K, x1 = 0.3163",1191.2 ± 0.38 kg/m3
same,mass density,"288.15 K, x1 = 0.4186",1204.89 ± 0.48 kg/m3
same,mass density,"288.15 K, x1 = 0.512",1215.13 ± 0.59 kg/m3
same,mass density,"288.15 K, x1 = 0.6129",1224.18 ± 0.72 kg/m3
same,mass density,"288.15 K, x1 = 0.6967",1232.13 ± 0.85 kg/m3
same,mass density,"288.15 K, x1 = 0.8031",1241.92 ± 1 kg/m3
same,mass density,"288.15 K, x1 = 0.9021",1252.46 ± 1.2 kg/m3
same,speed of sound,"293.15 K, x1 = 0.0528",1659.9 ± 2.2 m/s
same,speed of sound,"293.15 K, x1 = 0.1031",1653.9 ± 2.2 m/s
same,speed of sound,"293.15 K, x1 = 0.2102",1642 ± 2.3 m/s
same,speed of sound,"293.15 K, x1 = 0.3163",1634.5 ± 2.4 m/s
same,speed of sound,"293.15 K, x1 = 0.4186",1628.9 ± 2.4 m/s
same,speed of sound,"293.15 K, x1 = 0.512",1625.5 ± 2.5 m/s
same,speed of sound,"293.15 K, x1 = 0.6129",1623.6 ± 2.6 m/s
same,speed of sound,"293.15 K, x1 = 0.6967",1623.8 ± 2.6 m/s
same,speed of sound,"293.15 K, x1 = 0.8031",1626.3 ± 2.7 m/s
same,speed of sound,"293.15 K, x1 = 0.9021",1631.1 ± 2.9 m/s
same,mass density,"293.15 K, x1 = 0.0528",1132.19 ± 0.18 kg/m3
same,mass density,"293.15 K, x1 = 0.1031",1146.32 ± 0.21 kg/m3
same,mass density,"293.15 K, x1 = 0.2102",1170.4 ± 0.28 kg/m3
same,mass density,"293.15 K, x1 = 0.3163",1187.71 ± 0.37 kg/m3
same,mass density,"293.15 K, x1 = 0.4186",1201.44 ± 0.48 kg/m3
same,mass density,"293.15 K, x1 = 0.512",1211.73 ± 0.59 kg/m3
same,mass density,"293.15 K, x1 = 0.6129",1220.73 ± 0.72 kg/m3
same,mass density,"293.15 K, x1 = 0.6967",1228.69 ± 0.84 kg/m3
same,mass density,"293.15 K, x1 = 0.8031",1238.53 ± 1 kg/m3
same,mass density,"293.15 K, x1 = 0.9021",1249.15 ± 1.2 kg/m3
same,speed of sound,"298.15 K, x1 = 0.0528",1648.2 ± 2.2 m/s
same,speed of sound,"298.15 K, x1 = 0.1031",1640.8 ± 2.2 m/s
same,speed of sound,"298.15 K, x1 = 0.2102",1630.7 ± 2.3 m/s
same,speed of sound,"298.15 K, x1 = 0.3163",1623 ± 2.4 m/s
same,speed of sound,"298.15 K, x1 = 0.4186",1616.8 ± 2.4 m/s
same,speed of sound,"298.15 K, x1 = 0.512",1613.8 ± 2.5 m/s
same,speed of sound,"298.15 K, x1 = 0.6129",1612.4 ± 2.6 m/s
same,speed of sound,"298.15 K, x1 = 0.6967",1611.9 ± 2.6 m/s
same,speed of sound,"298.15 K, x1 = 0.8031",1613.2 ± 2.7 m/s
same,speed of sound,"298.15 K, x1 = 0.9021",1616 ± 2.8 m/s
same,mass density,"298.15 K, x1 = 0.0528",1128.67 ± 0.18 kg/m3
same,mass density,"298.15 K, x1 = 0.1031",1142.79 ± 0.21 kg/m3
same,mass density,"298.15 K, x1 = 0.2102",1166.87 ± 0.28 kg/m3
same,mass density,"298.15 K, x1 = 0.3163",1184.21 ± 0.37 kg/m3
same,mass density,"298.15 K, x1 = 0.4186",1198 ± 0.47 kg/m3
same,mass density,"298.15 K, x1 = 0.512",1208.33 ± 0.58 kg/m3
same,mass density,"298.15 K, x1 = 0.6129",1217.41 ± 0.71 kg/m3
same,mass density,"298.15 K, x1 = 0.6967",1225.25 ± 0.84 kg/m3
same,mass density,"298.15 K, x1 = 0.8031",1235.13 ± 1 kg/m3
same,mass density,"298.15 K, x1 = 0.9021",1245.76 ± 1.2 kg/m3
same,speed of sound,"303.15 K, x1 = 0.0528",1636.4 ± 2.2 m/s
same,speed of sound,"303.15 K, x1 = 0.1031",1629.8 ± 2.2 m/s
same,speed of sound,"303.15 K, x1 = 0.2102",1619.1 ± 2.3 m/s
same,speed of sound,"303.15 K, x1 = 0.3163",1611.6 ± 2.4 m/s
same,speed of sound,"303.15 K, x1 = 0.4186",1606.2 ± 2.4 m/s
same,speed of sound,"303.15 K, x1 = 0.512",1603 ± 2.5 m/s
same,speed of sound,"303.15 K, x1 = 0.6129",1601.7 ± 2.6 m/s
same,speed of sound,"303.15 K, x1 = 0.6967",1600.4 ± 2.6 m/s
same,speed of sound,"303.15 K, x1 = 0.8031",1600.9 ± 2.7 m/s
same,speed of sound,"303.15 K, x1 = 0.9021",1602.4 ± 2.8 m/s
same,mass density,"303.15 K, x1 = 0.0528",1125.14 ± 0.18 kg/m3
same,mass density,"303.15 K, x1 = 0.1031",1139.26 ± 0.21 kg/m3
same,mass density,"303.15 K, x1 = 0.2102",1163.34 ± 0.28 kg/m3
same,mass density,"303.15 K, x1 = 0.3163",1180.73 ± 0.37 kg/m3
same,mass density,"303.15 K, x1 = 0.4186",1194.57 ± 0.47 kg/m3
same,mass density,"303.15 K, x1 = 0.512",1204.94 ± 0.58 kg/m3
same,mass density,"303.15 K, x1 = 0.6129",1214.06 ± 0.71 kg/m3
same,mass density,"303.15 K, x1 = 0.6967",1221.86 ± 0.83 kg/m3
same,mass density,"303.15 K, x1 = 0.8031",1231.73 ± 1 kg/m3
same,mass density,"303.15 K, x1 = 0.9021",1242.37 ± 1.2 kg/m3
same,speed of sound,"308.15 K, x1 = 0.0528",1624.7 ± 2.2 m/s
same,speed of sound,"308.15 K, x1 = 0.1031",1618.3 ± 2.2 m/s
same,speed of sound,"308.15 K, x1 = 0.2102",1607.5 ± 2.3 m/s
same,speed of sound,"308.15 K, x1 = 0.3163",1600.1 ± 2.4 m/s
same,speed of sound,"308.15 K, x1 = 0.4186",1594.3 ± 2.4 m/s
same,speed of sound,"308.15 K, x1 = 0.512",1591.3 ± 2.5 m/s
same,speed of sound,"308.15 K, x1 = 0.6129",1590 ± 2.6 m/s
same,speed of sound,"308.15 K, x1 = 0.6967",1589.1 ± 2.6 m/s
same,speed of sound,"308.15 K, x1 = 0.8031",1589.3 ± 2.7 m/s
same,speed of sound,"308.15 K, x1 = 0.9021",1589.8 ± 2.8 m/s
same,mass density,"308.15 K, x1 = 0.0528",1121.61 ± 0.18 kg/m3
same,mass density,"308.15 K, x1 = 0.1031",1135.72 ± 0.21 kg/m3
same,mass density,"308.15 K, x1 = 0.2102",1159.81 ± 0.28 kg/m3
same,mass density,"308.15 K, x1 = 0.3163",1177.25 ± 0.36 kg/m3
same,mass density,"308.15 K, x1 = 0.4186",1191.13 ± 0.47 kg/m3
same,mass density,"308.15 K, x1 = 0.512",1201.54 ± 0.57 kg/m3
same,mass density,"308.15 K, x1 = 0.6129",1210.72 ± 0.7 kg/m3
same,mass density,"308.15 K, x1 = 0.6967",1218.56 ± 0.83 kg/m3
same,mass density,"308.15 K, x1 = 0.8031",1228.31 ± 1 kg/m3
same,mass density,"308.15 K, x1 = 0.9021",1238.93 ± 1.2 kg/m3
same,speed of sound,"313.15 K, x1 = 0.0528",1613.1 ± 2.2 m/s
same,speed of sound,"313.15 K, x1 = 0.1031",1606.5 ± 2.2 m/s
same,speed of sound,"313.15 K, x1 = 0.2102",1596.1 ± 2.3 m/s
same,speed of sound,"313.15 K, x1 = 0.3163",1588.8 ± 2.3 m/s
same,speed of sound,"313.15 K, x1 = 0.4186",1583.2 ± 2.4 m/s
same,speed of sound,"313.15 K, x1 = 0.512",1580.3 ± 2.5 m/s
same,speed of sound,"313.15 K, x1 = 0.6129",1579.1 ± 2.6 m/s
same,speed of sound,"313.15 K, x1 = 0.6967",1578.2 ± 2.6 m/s
same,speed of sound,"313.15 K, x1 = 0.8031",1578 ± 2.7 m/s
same,speed of sound,"313.15 K, x1 = 0.9021",1578 ± 2.8 m/s
same,mass density,"313.15 K, x1 = 0.0528",1118.07 ± 0.18 kg/m3
same,mass density,"313.15 K, x1 = 0.1031",1132.18 ± 0.2 kg/m3
same,mass density,"313.15 K, x1 = 0.2102",1156.29 ± 0.27 kg/m3
same,mass density,"313.15 K, x1 = 0.3163",1173.78 ± 0.36 kg/m3
same,mass density,"313.15 K, x1 = 0.4186",1187.7 ± 0.46 kg/m3
same,mass density,"313.15 K, x1 = 0.512",1198.15 ± 0.57 kg/m3
same,mass density,"313.15 K, x1 = 0.6129",1207.38 ± 0.7 kg/m3
same,mass density,"313.15 K, x1 = 0.6967",1215.25 ± 0.82 kg/m3
same,mass density,"313.15 K, x1 = 0.8031",1225 ± 0.99 kg/m3
same,mass density,"313.15 K, x1 = 0.9021",1235.48 ± 1.2 kg/m3
same,speed of sound,"318.15 K, x1 = 0.0528",1601.4 ± 2.2 m/s
same,speed of sound,"318.15 K, x1 = 0.1031",1595 ± 2.2 m/s
same,speed of sound,"318.15 K, x1 = 0.2102",1584.5 ± 2.3 m/s
same,speed of sound,"318.15 K, x1 = 0.3163",1577.5 ± 2.3 m/s
same,speed of sound,"318.15 K, x1 = 0.4186",1572.2 ± 2.4 m/s
same,speed of sound,"318.15 K, x1 = 0.512",1569.5 ± 2.5 m/s
same,speed of sound,"318.15 K, x1 = 0.6129",1568.3 ± 2.6 m/s
same,speed of sound,"318.15 K, x1 = 0.6967",1567.4 ± 2.6 m/s
same,speed of sound,"318.15 K, x1 = 0.8031",1567.1 ± 2.7 m/s
same,speed of sound,"318.15 K, x1 = 0.9021",1566.8 ± 2.8 m/s
same,mass density,"318.15 K, x1 = 0.0528",1114.51 ± 0.18 kg/m3
same,mass density,"318.15 K, x1 = 0.1031",1128.62 ± 0.2 kg/m3
same,mass density,"318.15 K, x1 = 0.2102",1152.75 ± 0.27 kg/m3
same,mass density,"318.15 K, x1 = 0.3163",1170.3 ± 0.36 kg/m3
same,mass density,"318.15 K, x1 = 0.4186",1184.27 ± 0.46 kg/m3
same,mass density,"318.15 K, x1 = 0.512",1194.76 ± 0.57 kg/m3
same,mass density,"318.15 K, x1 = 0.6129",1204.05 ± 0.69 kg/m3
same,mass density,"318.15 K, x1 = 0.6967",1211.94 ± 0.81 kg/m3
same,mass density,"318.15 K, x1 = 0.8031",1221.73 ± 0.99 kg/m3
same,mass density,"318.15 K, x1 = 0.9021",1232.06 ± 1.2 kg/m3
